Data as given in patent publication US20220323454A1, “PHENOTHIAZINES AND THEIR DERIVATIVES FOR USE AS A MEDICAMENT” (Guangzhou Virotech Pharmaceutical Co., Ltd., priority 2019, published 2022).

Columns and labels:
B16-WT cells = assay: Killing of B16-WT melanoma cells, with or without CTL cells; type: cell-based, mouse; conditions: FIG. 4E
Method: (§1) (4) The B16-OVA group received no treatment, and the medium was replaced with water in the Water group. The other groups were treated with 10 μg/mL IFNγ. After 24 hours, except for the B16-OVA group, each group was co-cultured with CTL cells at a ratio of 1:5 for 4 hours, and treated with MTC […], LMT (1 μM) or anti-PD1 (PD-1 antibody, 10 μg/mL, Nivolumab, BMS). The death of B16-OVA in each group was observed by microscope, and then the killing ability of CTL cells to target cells was assessed. […] The IFN-γ+MTC group and the IFN-γ+LMT group were treated with 10 μg/mL IFN-γ for 24 hours. The cells were then mixed with CTL cells at a ratio of 1:5, co-cultured for 4 hours and treated with MTC (1 μM) or LMT (1 μM). The MTC and LMT groups were treated with MTC (10 μM) or LMT (10 μM) only. The killing ability against target cells was observed.

B16-OVA cells = assay: CTL killing of IFN-γ-treated B16-OVA melanoma cells (microscope); type: cell-based, mouse
Method: (3) Melanoma cells B16-OVA (B16 cells expressing OVA gene) were treated with 10 μg/mL IFN-γ for 24 hours, and then mixed with CTL cells at a ratio of 1:5 and co-cultured for 4 hours. Cells were treated with 1 μM MTC. B16-OVA cells treated with DMSO or MTC only (without IFN-γ treatment) were used as control. The apoptosis of B16-OVA was observed by microscope, and then the killing ability of CTL cells to target cells was assessed.
as §1

[1] = tested on: Jurkat-PD-1-NFAT-LUC cells; assay: NFAT-luciferase activity in Jurkat-PD-1-NFAT-LUC cells co-cultured with Raji-PD-L1 cells; type: cell-based, human; conditions: 4.86 μM MTC or LMT added with Raji-PD-L1 cells, 6 h co-culture; FIG. 1E
Method: (§2) (1) Jurkat cells were used to construct a stable cell line expressing PD-1. The pCAGin-PD-1 plasmid was electroporated into Jurkat cells, which were then screened with 900 μg/mL G418 antibiotic and flow-sorted for single clones. Jurkat-PD-1 cells were then electroporated into a DNA fragment that controls the luciferase gene through the NFAT-binding site (referred to as NFAT-LUC). A single clone was then flow-sorted and named clone 5. Using this cell, the expression level of IL-2 can be measured by the activity of luciferase. Raji cells stably expressing PD-L1 were constructed, and the pCDNA-PD-L1 plasmid was electroporated into the Raji cells, followed by screening with 2 μg/mL puromycin, and then flow-sorted single clones and named clone 1.
(4) A 96-well plate was coated with 10 μg/mL CD3 antibody/10 μg/mL CD28 antibody overnight at 4° C., and excess antibody then washed off with PBS. Raji cells or Raji-PD-L1 cells were co-cultured with Jurkat-PD-1-NFAT-LUC cells at a ratio of 1:1, or to a mixture of Raji-PD-L1 cells and Jurkat-PD-1-NFAT-LUC cells at a ratio of 1:1 was added 4.86 μM MTC or LMT. Luciferase substrate was added after 6h co-culture and the luciferase activity was measured by a microplate reader.

EL4-OVA-mPDL1 cells = assay: EL4-OVA-mPDL1 subcutaneous transplanted tumor in Rag1−/− mice given CTL cells; type: in vivo, mouse; conditions: CTL cells by tail vein, MTC 40 mg/kg/day intragastric, PD-1 antibody 10 mg/kg/2 days intraperitoneal, vs CTL cell-only group, FIGS. 5B, C, D
Method: (1) Lymphoma cells overexpressing chicken ovalbumin OVA and mouse PD-L1, namely EL4-OVA-mPDL1 cells, were resuspended in BD Matrigel, in which, for one side of one mouse, 2×10^6 cells were resuspended in 100 μl BD Matrigel.
(2) The mixture of cells and Matrigel was inoculated into the left and right flanks of Rag1−/− mice subcutaneously, each at a dosage of 100 μl.
(3) When the tumor was fixed about 5 days after inoculation, activated OT-1 T cells (i.e., 2×10^6 CTL cells/mouse) were injected through the tail vein, and the mice were divided into 3 groups, namely the CTL cell group, the CTL cell +10 mg/kg/2 days PD-1 antibody group, and the CTL cell +40 mg/kg/day MTC group.
(4) The length and width of the transplanted tumor of each group of mice were measured from the day of tail vein injection of CTL cells, and every other day, and the tumor volume was calculated as length×width^2/2 (FIG. 5A).

[2] = tested on: Jurkat-PD-1-NFAT-LUC cells; assay: IL-2 secretion by Jurkat-PD-1-NFAT-LUC cells co-cultured with Raji-PD-L1 cells (ELISA); type: cell-based, human; conditions: Raji-PD-L1 : Jurkat-PD-1-NFAT-LUC 1:1, CD3/CD28 antibody coated plate, 6 hours; 1 μM MTC or 10 μg/mL PD1 antibody; FIG. 1D
Method: as §2
(3) A 96-well plate was coated with 10 μg/mL CD3 antibody/10 μg/mL CD28 antibody overnight at 4° C. and excess antibody was washed off with PBS. Raji cells or Raji-PD-L1 cells were co-cultured with Jurkat-PD-1-NFAT-LUC cells at a ratio of 1:1, or to a mixture of Raji-PD-L1 cells and Jurkat-PD-1-NFAT-LUC cells at a ratio of 1:1 was added 1 μM MTC or 10 μg/mL PD1 antibody for co-culture; after 6 hours of co-culture, the secretion of IL-2 in the supernatant was measured by ELISA.

Row | Molecule | killing effect on B16-WT cells, combination with CTL cells (B16-WT cells; IFN-γ 10 μg/mL 24 hours, B16-WT : CTL 1:5, 4 hours, MTC (1 μM) or LMT (1 μM)) | killing effect on B16-WT cells, compound only (B16-WT cells; MTC (10 μM) or LMT (10 μM) only) | killing effects of CTL cells to B16-OVA cells (B16-OVA cells; B16-OVA treated with 10 μg/mL IFNγ 24 hours, B16-OVA : CTL 1:5, 4 hours, MTC (1 µM), LMT (1 μM), FIGS. 4C and 4D) | combined killing effect with CTL cells on B16-OVA compared with the anti-PD-1 group (B16-OVA cells; MTC (1 µM) or LMT (1 μM) vs anti-PD1 10 μg/mL, FIG. 4D) | luciferase activity [1] | tumor growth (tumor volume and tumor weight) (EL4-OVA-mPDL1 cells) | secretion of IL-2 in the supernatant [2]
1 | CN(C)c1ccc2c(c1)Sc1cc(N(C)C)ccc1N2 [LMT, N3,N3,N7,N7-tetramethyl-10H-phenothiazine-3,7-diammonium dimesylate] | no killing effect | no killing effect | significantly enhanced | significantly stronger than that of the anti-PD-1 group | increased dramatically | – | –
2 | PD-1 antibody: anti-PD-1 antibody (Nivolumab, Bristol-Myers Squibb) used as comparator | – | – | – | – | – | inhibited | sharply enhanced
